In patent publication US8906852B2 (MethylGene Inc., priority 2010, dated 2014):

Target: T1, VEGFR/KDR (Homo sapiens, UniProt P35968)
T1 construct: made in house; host or cells: Sf9 cells (Spodoptera frugiperda), baculovirus
Assay: VEGFR/KDR kinase inhibition, DELFIA assay
Type: biochemical
Details: ATP 0.6 uM (2x Km), enzyme 5 nM
Procedure, shortened: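 Enzyme (5 nM) pre-incubated 4 min on ice with inhibitor and Mg-ATP (0.6 uM, 2× Km), then reacted 10-30 min at 30° C on immobilized poly(Glu4,Tyr). EDTA-quenched phosphotyrosine detected with Europium-labeled antibody by time-resolved fluorescence; IC50 from concentration series.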

T1 sequence (P35968 806-1356): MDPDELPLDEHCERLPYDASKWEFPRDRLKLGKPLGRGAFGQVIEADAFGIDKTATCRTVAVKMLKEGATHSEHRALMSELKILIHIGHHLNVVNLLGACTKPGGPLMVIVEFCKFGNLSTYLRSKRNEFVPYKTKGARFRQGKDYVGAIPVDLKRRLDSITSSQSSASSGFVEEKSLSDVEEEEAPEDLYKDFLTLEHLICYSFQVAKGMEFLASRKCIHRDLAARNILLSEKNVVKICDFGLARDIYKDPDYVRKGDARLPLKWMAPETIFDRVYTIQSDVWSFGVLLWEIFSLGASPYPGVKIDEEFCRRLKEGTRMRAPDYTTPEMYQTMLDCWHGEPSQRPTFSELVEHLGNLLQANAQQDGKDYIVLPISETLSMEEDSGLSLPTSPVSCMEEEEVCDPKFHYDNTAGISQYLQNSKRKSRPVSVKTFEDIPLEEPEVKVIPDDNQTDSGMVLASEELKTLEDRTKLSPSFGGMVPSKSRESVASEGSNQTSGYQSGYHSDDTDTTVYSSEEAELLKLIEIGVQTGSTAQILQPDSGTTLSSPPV

Row | IC50 | SMILES
1 | < 50 nM | COCCNCc1ccc(-c2cc3nccc(Oc4ccc(NC(CC(=O)Nc5ccccc5)C(F)(F)F)cc4F)c3s2)nc1 (centres unmarked) [Compound 19, 4,4,4-trifluoro-3-(3-fluoro-4-(2-(5-((2-methoxyethylamino)methyl)pyridin-2-yl)thieno[3,2-b]pyridin-7-yloxy)phenylamino)-N-phenylbutanamide]
2 | < 50 nM | O=C(Nc1ccc(Oc2ccnc3cc(C(=O)N4CC[C@@H](O)C4)sc23)c(F)c1)NC1CC1 [Compound 460, (R)-1-cyclopropyl-3-(3-fluoro-4-(2-(3-hydroxypyrrolidine-1-carbonyl)thieno[3,2-b]pyridin-7-yloxy)phenyl)urea]
3 | < 50 nM | CC(=O)N[C@@H]1CCN(C(=O)c2cc3nccc(Oc4ccc(NC(=O)NC5CC5)cc4F)c3s2)C1 [Compound 453]
4 | < 50 nM | O=C(Nc1ccc(Oc2ccnc3cc(-c4ccc(CN5CCN(CCOCCO)CC5)cn4)sc23)c(F)c1)NC1CC1 [Compound 327]
5 | < 50 nM | O=C(Nc1ccc(Oc2ccnc3cc(-c4ccc(C(=O)N5CCN(CCOCCO)CC5)cn4)sc23)c(F)c1)NC1CC1 [Compound 396]
6 | < 50 nM | O=C(CCc1cccnc1)NC1CCN(Cc2ccc(-c3cc4nccc(Oc5ccc(NC(=O)NC6CC6)cc5F)c4s3)nc2)CC1 [Compound 348]
7 | < 50 nM | O=C(Nc1ccc(Oc2ccnc3cc(-c4ccc(C(=O)N5CCCC5)cc4)sc23)c(F)c1)Nc1ccc(F)cc1F [Compound 127, 1-(2,4-difluorophenyl)-3-(3-fluoro-4-(2-(4-(pyrrolidine-1-carbonyl)phenyl)thieno[3,2-b]pyridin-7-yloxy)phenyl)urea]
8 | < 50 nM | O=C(Nc1ccc(Oc2ccnc3cc(-c4ccc(CN5CCN(C(=O)CCO)CC5)cn4)sc23)c(F)c1)NC1CC1 [Compound 545]
9 | < 50 nM | O=C(Nc1ccc(Oc2ccnc3cc(-c4ccc(CN5CCNCC5=O)cn4)sc23)c(F)c1)NC1CC1 [Compound 72]
10 | < 50 nM | O=C(Nc1ccc(Oc2ccnc3cc(-c4ccc(CN5C[C@@H]6C[C@H]5CN6)cn4)sc23)c(F)c1)NC1CC1 [Compound 73]
11 | < 50 nM | O=C(Nc1ccc(Oc2ccnc3cc(-c4ccc(CN5CCOCCOCCOCC5)cn4)sc23)c(F)c1)NC1CC1 [Compound 532]
12 | < 50 nM | O=C(Nc1ccc(Oc2ccnc3cc(-c4ccc(CN5CCN(CCn6ccnc6)CC5)cn4)sc23)c(F)c1)NC1CC1 [Compound 54-G, 1-(4-(2-(5-((4-(2-(1H-imidazol-1-yl)ethyl)piperazin-l-yl)methyl)pyridin-2-yl)thieno[3,2-b]pyridin-7-yloxy)-3-fIuorophenyl)-3-cyclopropylurea]
13 | < 50 nM | COCCN(Cc1ccc(-c2cc3nccc(Oc4ccc(NC(=O)NC5CC5)cc4F)c3s2)cc1)C(=O)CO [Compound 115-A, N-(4-(7-(4-(3-cyclopropylureido)-2-fluorophenoxy)thieno[3,2-b]pyridin-2-yl)benzyl)-2-hydroxy-N-(2-methoxyethyl)acetamide]
14 | < 50 nM | CNC(=O)CCN1CCN(Cc2ccc(-c3cc4nccc(Oc5ccc(NC(=O)NC6CC6)cc5F)c4s3)nc2)CC1 [Compound 81, 3-(4-((6-(7-(4-(3-cyclopropylureido)-2-fluorophenoxy)thieno[3,2-b]pyridin-2-yl)pyridin-3-yl)methyl)piperazin-1-yl)-N-methylpropanamide]
15 | < 50 nM | NC1CCN(C(=O)Cn2cc(-c3cc4nccc(Oc5ccc(NC(=O)NC6CC6)cc5F)c4s3)nn2)CC1 [Compound 395]
16 | < 50 nM | CN(C[C@@H](O)[C@H](O)[C@@H](O)[C@@H](O)CO)C(=O)c1ccc(-c2cc3nccc(Oc4ccc(NC(=O)NC5CC5)cc4F)c3s2)nc1 (stereo in doubt) [Compound 244, 6-(7-(4-(3-cyclopropylureido)-2-fluorophenoxy)thieno[3,2-b]pyridin-2-yl)-N-methyl-N-((2R,3S,4S,5S)-2,3,4,5,6-pentahydroxyhexyl)nicotinamide]
17 | < 50 nM | C[C@@H]1CN(Cc2ccc(-c3cc4nccc(Oc5ccc(NC(=O)NC6CC6)cc5F)c4s3)nc2)C[C@H](C)N1 [Compound 530, 1-cyclopropyl-3-(4-(2-(5-(((3S,5R)-3,5-dimethylpiperazin-1-yl)methyl)pyridin-2-yl)thieno[3,2-b]-pyridin-7-yloxy)-3-fluorophenyl)urea]
18 | < 50 nM | CCNC(=O)N(C)C1CCN(Cc2ccc(-c3cc4nccc(Oc5ccc(NC(=O)NC6CC6)cc5F)c4s3)nc2)CC1 [Compound 407]

Row | IC50 | SMILES
19 | < 50 nM | O=C(Nc1ccc(Oc2ccnc3cc(-c4ccc(CN5CC[C@@H](O)C5)cn4)sc23)c(F)c1)NC1CC1 [Compound 53, (R)-1-cyclopropyl-3-(3-fluoro-4-(2-(5-((3-hydroxypyrrolidin-1-yl)methyl)pyridin-2-yl)thieno[3,2-b]-pyridin-7-yloxy)phenyl)urea]
20 | < 50 nM | CC(=O)O[C@@H]1CCN(C(=O)c2cc3nccc(Oc4ccc(NC(=O)NC5CC5)cc4F)c3s2)C1 [Compound 467, (R)-1-(7-(4-(3-cyclopropylureido)-2-fluorophenoxy)thieno[3,2-b]pyridine-2-carbonyl)pyrrolidin-3-yl acetate]
21 | < 50 nM | COCCN(Cc1ccc(-c2cc3nccc(Oc4ccc(NC(=O)NC5CC5)cc4F)c3s2)nc1)C(=O)NC(C)C [Compound 190, 1-((6-(7-(4-cyclopropylaminocarbonylamino-2-fluorophenoxy)-thieno[3,2-b]pyridin-2-yl)pyridin-3-yl)methyl)-3-isopropyl-1-(2-methoxyethyl)urea]
22 | < 50 nM | O=C(O)CC(=O)N1CCN(Cc2ccc(-c3cc4nccc(Oc5ccc(NC(=O)NC6CC6)cc5F)c4s3)nc2)CC1 [Compound 510, 3-(4-((6-(7-(4-(3-cyclopropylureido)-2-fluorophenoxy)thieno[3,2-b]pyridin-2-yl)pyridin-3-yl)methyl)piperazin-1-yl)-3-oxopropanoic acid]
23 | < 50 nM | CC(C)(CO)C(=O)N1CCN(Cc2ccc(-c3cc4nccc(Oc5ccc(NC(=O)NC6CC6)cc5F)c4s3)nc2)CC1 [Compound 537]
24 | < 50 nM | CCNC(=O)N(CCOC)Cc1cnc(-c2cc3nccc(Oc4ccc(NC(=O)NC5CC5)cc4F)c3s2)n1C [Compound 161-B, 1-((2-(7-(4-cyclopropylaminocarbonylamino-2-fluorophenoxy)thieno[3,2-b]pyridin-2-yl)-1-methyl-1H-imidazol-5-yl)methyl)-3-ethyl-1-(2-methoxyethyl)urea]
25 | < 50 nM | O=C(Nc1ccc(Oc2ccnc3cc(-c4cnn(CCN5CCOCC5)c4)sc23)c(F)c1)NC1CC1 [Compound 155, 1-cyclopropyl-3-(3-fluoro-4-(2-(1-(2-morpholinoethyl)-1H-pyrazol-4-yl)thieno[3,2-b]pyridin-7-yloxy)phenyl)urea]
26 | < 50 nM | O=C(Nc1ccc(Oc2ccnc3cc(-c4ccc(CN5CCC(C(=O)NCCO)CC5)cn4)sc23)c(F)c1)NC1CC1 [Compound 483, 1-((6-(7-(4-(3-cyclopropylureido)-2-fluorophenoxy)thieno[3,2-b]pyridin-2-yl)pyridin-3-yl)methyl)-N-(2-hydroxyethyl)piperidine-4-carboxamide]
27 | < 50 nM | COCCN(Cc1ccc(-c2cc3nccc(Oc4ccc(NC(=O)NC5CC5)cc4F)c3s2)nc1)C(=O)CNC(=O)CN [Compound 92-A, 2-(2-aminoacetamido)-N-((6-(7-(4-(3-cyclopropylureido)-2-fluorophenoxy)thieno[3,2-b]pyridin-2-yl)pyridin-3-yl)methyl)-N-(2-methoxyethyl)acetamide]
28 | < 50 nM | COCCOCCOCCNC(=O)N1CCN(Cc2ccc(-c3cc4nccc(Oc5ccc(NC(=O)NC6CC6)cc5F)c4s3)nc2)CC1 [Compound 596, 4-((6-(7-(4-(3-Cyclopropylureido)-2-fluorophenoxy)thieno[3,2-b]pyridin-2-yl)pyridin-3-yl)methyl)-N-(2-(2-(2-methoxyethoxy)ethoxy)ethyl)piperazine-1-carboxamide]
29 | < 50 nM | COC(=O)CC(=O)N1CCN(Cc2ccc(-c3cc4nccc(Oc5ccc(NC(=O)NC6CC6)cc5F)c4s3)nc2)CC1 [Compound 506, methyl 3-(4-((6-(7-(4-(3-cyclopropylureido)-2-fluorophenoxy)thieno[3,2-b]pyridin-2-yl)pyridin-3-yl)methyl)piperazin-1-yl)-3-oxopropanoate]
30 | 100 to 250 nM | CC(C)(C)C(=O)O[C@H]1CCN(C(=O)c2cc3nccc(Oc4ccc(NC(=O)NC5CC5)cc4F)c3s2)C1 [Compound 448]
31 | 100 to 250 nM | COCCNCc1ccc(-c2cc3nccc(Oc4ccc(NC(=O)NC5CC5)nc4)c3s2)nc1 [Compound 29, 1-cyclopropyl-3-(5-(2-(5-((2-methoxyethylamino)methyl)pyridin-2-yl)thieno[3,2-b]-pyridin-7-yloxy)pyridin-2-yl)urea]
32 | < 50 nM | O=C(Nc1ccc(Oc2ccnc3cc(-c4cnn(CCN5CCCC5=O)c4)sc23)c(F)c1)NC1CC1 [Compound 166, 1-cyclopropyl-3-(3-fluoro-4-(2-(1-(2-(2-oxopyrrolidin-1-yl)ethyl)-1H-pyrazol-4-yl)thieno[3,2-b]pyridin-7-yloxy)phenyl)urea]
33 | < 50 nM | CCOC(=O)CCN1CCN(Cc2ccc(-c3cc4nccc(Oc5ccc(NC(=O)NC6CC6)cc5F)c4s3)nc2)CC1 [Compound 68, ethyl 3-(4-((6-(7-(4-(3-cyclopropyl-ureido)-2-fluorophenoxy)-thieno[3,2-b]-pyridin-2-yl)pyridin-3-yl)methyl)piperazin-1-yl)propanoate]
34 | < 50 nM | O=C(Nc1ccc(Oc2ccnc3cc(-c4ccc(CN5CC[C@H](F)C5)cn4)sc23)c(F)c1)NC1CC1 [Compound 323, (S)-1-cyclopropyl-3-(3-fluoro-4-(2-(5-((3-fluoropyrrolidin-1-yl)methyl)pyridin-2-yl)thieno[3,2-b]pyridin-7-yloxy)phenyl)urea]
35 | < 50 nM | COCCNCCc1ccc(-c2cc3nccc(Oc4ccc(NC(=O)C5(C(=O)Nc6ccc(F)cc6)CC5)cc4F)c3s2)nc1 [Compound 185, N-(3-fluoro-4-(2-(5-(2-(2-methoxyethylamino)ethyl)pyridin-2-yl)thieno[3,2-b]pyridin-7-yloxy)phenyl)-N-(4-fluorophenyl)cyclopropane-1,1-dicarboxamide]
